Experimental data: US20230119068A1, “METHODS FOR RAPID SYNTHESIS OF PYRANOANTHOCYANINS” (Ohio State Innovation Foundation, priority 2020, published 2023)

How the values were obtained:
[1] = test system: E. coli, S. aureus and B. cereus, and LAB; settings: compared with CA and FA; cited from earlier work
[2] = Color expression of cis and trans isomers of acylated delphinidin at different pH; format: physicochemical; settings: for color expression: pH 4
Procedure: Delphinidin-3-(p-coumaroyl)-rutinoside-5-glucoside was extracted from Chinese eggplants, semi-purified and taken to 400 mg/L in methanol. Extract aliquots were placed in sealed quartz cuvettes, with the clear side facing up, and irradiated with different light sources (sunlight, D65 lamp, and UV chamber at 365 nm) for up to 112 hrs. Pigment isomerization was monitored over time on a uHPLC-PDA-MS/MS, using a pentafluorophenyl column and positive electrospray ionization on a triple quadrupole. Cis and trans-delphinidin-derivatives were isolated to compare their color stability and strength. Color was measured on a ColorQuest XE spectrophotometer, using 10° observer angle, illuminant D65, and total transmittance. Data was collected in triplicates and analyzed by two-way ANOVA.

Compound | antibacterial activity [1] | color expression [2] | color intensity ([2]; pH 5)
O=C(O)/C=C/c1ccc(O)cc1 [pCA, p-coumaric acid] | stronger antibacterial activity |  | 
Delphinidin-3-(p-coumaroyl)-rutinoside-5-glucoside [cis-delphinidin] |  | noticeable color | greater color intensity than the trans-isomer
Delphinidin-3-(p-coumaroyl)-rutinoside-5-glucoside [trans-delphinidin] |  | bleached completely | 
